Experimental data: US11083725B2 (priority 2014, dated 2021)

Test system: NHBE cells
Assay: Biolog metabolic array: substrate use by NHBE cells with or without CA09 infection
Assay type: cell-based, human
Conditions: for Substrate use, 590 nm absorbance normalized to zero hour, 1 hr: Biolog PMM2, 1 hr; for Substrate use, 590 nm absorbance normalized to zero hour, 5 hr: Biolog PMM2, 5 hr; for Substrate use, 590 nm absorbance normalized to zero hour, 7 hr: Biolog PMM2, 7 hr
[1] = Control (uninfected) NHBE cells
[2] = Virus (CA09-infected NHBE cells, MOI 1)
[3] = Virus: CA09-infected NHBE cells, MOI 1, Biolog PMM2
[4] = Virus (CA09-infected, MOI 1) NHBE cells
[5] = Virus (CA09, MOI 1) infected NHBE cells

Compound | 590 nm absorbance normalized to zero hour (substrate use), 1 hr [1] | 590 nm absorbance normalized to zero hour (substrate use), 2 hr [1] | 590 nm absorbance normalized to zero hour (substrate use), 3 hr [1] | 590 nm absorbance normalized to zero hour (substrate use), 4 hr [1] | 590 nm absorbance normalized to zero hour (substrate use), 6 hr [1] | 590 nm absorbance normalized to zero hour (substrate use), 8 hr [1] | 590 nm absorbance normalized to zero hour (substrate use), 9 hr [1] | 590 nm absorbance normalized to zero hour (substrate use), 10 hr [1] | 590 nm absorbance normalized to zero hour (substrate use), 11 hr [1] | Substrate use, 590 nm absorbance normalized to zero hour, 1 hr [1] | Substrate use, 590 nm absorbance normalized to zero hour, 5 hr [1] | Substrate use, 590 nm absorbance normalized to zero hour, 7 hr [1] | 590 nm absorbance normalized to zero hour (substrate use), 1 hr [3] | 590 nm absorbance normalized to zero hour (substrate use), 2 hr [3] | 590 nm absorbance normalized to zero hour (substrate use), 3 hr [3] | 590 nm absorbance normalized to zero hour (substrate use), 4 hr [3] | 590 nm absorbance normalized to zero hour (substrate use), 5 hr [3] | 590 nm absorbance normalized to zero hour (substrate use), 6 hr [3] | 590 nm absorbance normalized to zero hour (substrate use), 7 hr [3] | 590 nm absorbance normalized to zero hour (substrate use), 8 hr [3] | also measured
OC[C@H]1O[C@H](OC[C@H]2OC(O)(CO)[C@@H](O)[C@@H]2O)[C@H](O)[C@@H](O)[C@@H]1O (stereo partly shown) [Palatinose] | 1.31 | 1.79 | 1.68 | 1.81 | 2.44 | 2.16 | 2.14 | 1.94 | 1.44 | 1.31 | 2.10 | 2.18 | 0.18 | 0.24 | 0.28 | 0.29 | 0.34 | 0.36 | 0.38 | 0.41 | 590 nm absorbance normalized to zero hour (substrate use), 0 hr [1]: 1.00; Substrate use, 590 nm absorbance normalized to zero hour, 0 hr (Control (uninfected) NHBE cells, Biolog PMM2, 0 hr): 1.00; 590 nm absorbance normalized to zero hour (substrate use), 0 hr [2]: 1.00; 590 nm absorbance normalized to zero hour (substrate use), 1 hr [2]: 0.18; 590 nm absorbance normalized to zero hour (substrate use), 2 hr [2]: 0.24; 590 nm absorbance normalized to zero hour (substrate use), 3 hr [2]: 0.28; 590 nm absorbance normalized to zero hour (substrate use), 4 hr [2]: 0.29; 590 nm absorbance normalized to zero hour (substrate use), 5 hr [2]: 0.34; 590 nm absorbance normalized to zero hour (substrate use), 6 hr [2]: 0.36; 590 nm absorbance normalized to zero hour (substrate use), 7 hr [2]: 0.38; 590 nm absorbance normalized to zero hour (substrate use), 8 hr [2]: 0.41; 590 nm absorbance normalized to zero hour (substrate use), 9 hr [2]: 0.45; 590 nm absorbance normalized to zero hour (substrate use), 10 hr [2]: 0.46; 590 nm absorbance normalized to zero hour (substrate use), 11 hr [2]: 0.50; 590 nm absorbance normalized to zero hour (substrate use), 0 hr [3]: 1.00; 590 nm absorbance normalized to zero hour (substrate use), 9 hr [3]: 0.45; 590 nm absorbance normalized to zero hour (substrate use), 10 hr [3]: 0.46; 590 nm absorbance normalized to zero hour (substrate use), 11 hr [3]: 0.50
CCC(=O)O [Propionic Acid] | 1.39 | 1.55 | 1.71 | 1.74 | 0.17 | 1.84 | 1.99 | 1.15 | 1.23 | 1.39 | 1.91 | 1.75 | 1.23 | 0.70 | 0.83 | 0.93 | 1.08 | 1.15 | 1.17 | 1.18 | 590 nm absorbance normalized to zero hour (substrate use), 1 hr [4]: 1.23; 590 nm absorbance normalized to zero hour (substrate use), 2 hr [4]: 0.70; 590 nm absorbance normalized to zero hour (substrate use), 3 hr [4]: 0.83; 590 nm absorbance normalized to zero hour (substrate use), 4 hr [4]: 0.93; 590 nm absorbance normalized to zero hour (substrate use), 5 hr [4]: 1.08; 590 nm absorbance normalized to zero hour (substrate use), 6 hr [4]: 1.15; 590 nm absorbance normalized to zero hour (substrate use), 7 hr [4]: 1.17; 590 nm absorbance normalized to zero hour (substrate use), 8 hr [4]: 1.18; 590 nm absorbance normalized to zero hour (substrate use), 9 hr [4]: 1.32; 590 nm absorbance normalized to zero hour (substrate use), 10 hr [4]: 1.11; 590 nm absorbance normalized to zero hour (substrate use), 11 hr [4]: 1.26; 590 nm absorbance normalized to zero hour (substrate use), 9 hr [3]: 1.32; 590 nm absorbance normalized to zero hour (substrate use), 10 hr [3]: 1.11; 590 nm absorbance normalized to zero hour (substrate use), 11 hr [3]: 1.26
CC(=O)C(=O)O [Pyruvic Acid] | 1.34 | 1.40 | 1.54 | 1.61 | 1.39 | 1.57 | 1.71 | 1.81 | 2.49 | 1.34 | 1.70 | 1.52 | 1.27 | 0.82 | 0.94 | 1.20 | 1.10 | 1.09 | 1.06 | 0.67 | 590 nm absorbance normalized to zero hour (substrate use), 1 hr [4]: 1.27; 590 nm absorbance normalized to zero hour (substrate use), 2 hr [4]: 0.82; 590 nm absorbance normalized to zero hour (substrate use), 3 hr [4]: 0.94; 590 nm absorbance normalized to zero hour (substrate use), 4 hr [4]: 1.20; 590 nm absorbance normalized to zero hour (substrate use), 5 hr [4]: 1.10; 590 nm absorbance normalized to zero hour (substrate use), 6 hr [4]: 1.09; 590 nm absorbance normalized to zero hour (substrate use), 7 hr [4]: 1.06; 590 nm absorbance normalized to zero hour (substrate use), 8 hr [4]: 0.67; 590 nm absorbance normalized to zero hour (substrate use), 9 hr [4]: 0.65; 590 nm absorbance normalized to zero hour (substrate use), 10 hr [4]: 0.75; 590 nm absorbance normalized to zero hour (substrate use), 11 hr [4]: 0.61; 590 nm absorbance normalized to zero hour (substrate use), 9 hr [3]: 0.65; 590 nm absorbance normalized to zero hour (substrate use), 10 hr [3]: 0.75; 590 nm absorbance normalized to zero hour (substrate use), 11 hr [3]: 0.61
OCc1ccccc1O[C@@H]1O[C@H](CO)[C@@H](O)[C@H](O)[C@H]1O [Salicin] | 1.17 | 0.93 | 0.96 | 0.83 | 0.43 | 0.67 | 0.66 | 0.62 | 0.62 | 1.17 | 0.78 | 0.69 |  |  |  |  |  |  |  |  | Substrate use, 590 nm absorbance normalized to zero hour, 1 hr [5]: 0.77; Substrate use, 590 nm absorbance normalized to zero hour, 5 hr [5]: 1.64; Substrate use, 590 nm absorbance normalized to zero hour, 7 hr [5]: 1.87; 590 nm absorbance normalized to zero hour (substrate use), 1 hr [4]: 0.77; 590 nm absorbance normalized to zero hour (substrate use), 2 hr [4]: 1.06; 590 nm absorbance normalized to zero hour (substrate use), 3 hr [4]: 1.26; 590 nm absorbance normalized to zero hour (substrate use), 4 hr [4]: 1.36; 590 nm absorbance normalized to zero hour (substrate use), 6 hr [4]: 1.76; 590 nm absorbance normalized to zero hour (substrate use), 8 hr [4]: 2.01; 590 nm absorbance normalized to zero hour (substrate use), 9 hr [4]: 2.26; 590 nm absorbance normalized to zero hour (substrate use), 10 hr [4]: 2.38; 590 nm absorbance normalized to zero hour (substrate use), 11 hr [4]: 2.62
